The results in this text go back to patent publication US20140163026A1, “8-ETHYL-6-(ARYL)PYRIDO[2,3-D]PYRIMIDIN-7(8H)-ONES FOR THE TREATMENT OF NERVOUS SYSTEM DISORDERS AND CANCER” (Afraxis Holdings, Inc., priority 2011, published 2014).

What is called IC50 is the concentration that gives 50% inhibition. Read a high IC50 as weaker potency in that assay.

Common to all, as to type: biochemical
The target in one assay is PAK1 (Homo sapiens, UniProt Q13153). Nature of the assay: In vitro PAK inhibition assay (SelectScreen, Ser/Thr 19 peptide). The gist of the method:
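Ten-point, 3-fold compound series at 1% final DMSO were incubated with enzyme, Ser/Thr 19 peptide and ATP for 60 min at room temperature. Buffer was HEPES pH 7.5 (50 mM) with 10 mM MgCl2, 1 mM EGTA, 0.01% BRIJ-35. A 60 min development step preceded the fluorescence read converted to % phosphorylation.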

The target of the next assay is PAK4 (Homo sapiens, UniProt O96013). Nature of the assay: In vitro PAK inhibition assay (SelectScreen, Ser/Thr 20 peptide). The gist of the method: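 Ten-point, 3-fold compound series (1% DMSO) incubated 1 h at room temperature with PAK4 (0.1-0.75 ng) and 2 μM Ser/Thr 20 peptide, HEPES pH 7.5 buffer with MgCl2, EGTA, BRIJ-35. Development reagent cleaves non-phosphorylated peptide; fluorescence emission ratio gives % phosphorylation, fitted sigmoidally for IC50.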
Sequence of PAK4 (O96013 whole entry): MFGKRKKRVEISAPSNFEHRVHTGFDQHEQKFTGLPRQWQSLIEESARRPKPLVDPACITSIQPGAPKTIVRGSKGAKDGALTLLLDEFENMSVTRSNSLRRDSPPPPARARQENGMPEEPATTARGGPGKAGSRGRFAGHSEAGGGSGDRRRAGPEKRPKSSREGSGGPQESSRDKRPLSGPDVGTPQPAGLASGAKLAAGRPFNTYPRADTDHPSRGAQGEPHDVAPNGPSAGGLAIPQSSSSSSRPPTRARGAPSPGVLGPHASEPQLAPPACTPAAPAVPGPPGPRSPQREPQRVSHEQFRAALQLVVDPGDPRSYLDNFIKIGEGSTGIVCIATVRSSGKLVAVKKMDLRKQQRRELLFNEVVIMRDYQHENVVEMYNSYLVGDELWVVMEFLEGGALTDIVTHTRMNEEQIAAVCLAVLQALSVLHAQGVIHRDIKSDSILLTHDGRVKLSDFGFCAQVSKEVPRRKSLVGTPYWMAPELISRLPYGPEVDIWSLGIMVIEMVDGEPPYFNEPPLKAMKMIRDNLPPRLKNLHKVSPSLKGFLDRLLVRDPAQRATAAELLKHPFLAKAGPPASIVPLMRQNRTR

The target of a further assay is PAK3 (Homo sapiens, UniProt O75914). The assay is described as above. The gist of the method: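 Fluorescence-based development format: after a 60-min room-temperature kinase reaction and 60-min protease development, percent phosphorylation of Ser/Thr 20 peptide calculated via phosphopeptide controls. Buffer 50 mM HEPES pH 7.5, 10 mM MgCl2, 1 mM EGTA, 0.01% BRIJ-35; compounds at 1% DMSO, 10-point 3-fold dilution series.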
Sequence of PAK3 (O75914 whole entry): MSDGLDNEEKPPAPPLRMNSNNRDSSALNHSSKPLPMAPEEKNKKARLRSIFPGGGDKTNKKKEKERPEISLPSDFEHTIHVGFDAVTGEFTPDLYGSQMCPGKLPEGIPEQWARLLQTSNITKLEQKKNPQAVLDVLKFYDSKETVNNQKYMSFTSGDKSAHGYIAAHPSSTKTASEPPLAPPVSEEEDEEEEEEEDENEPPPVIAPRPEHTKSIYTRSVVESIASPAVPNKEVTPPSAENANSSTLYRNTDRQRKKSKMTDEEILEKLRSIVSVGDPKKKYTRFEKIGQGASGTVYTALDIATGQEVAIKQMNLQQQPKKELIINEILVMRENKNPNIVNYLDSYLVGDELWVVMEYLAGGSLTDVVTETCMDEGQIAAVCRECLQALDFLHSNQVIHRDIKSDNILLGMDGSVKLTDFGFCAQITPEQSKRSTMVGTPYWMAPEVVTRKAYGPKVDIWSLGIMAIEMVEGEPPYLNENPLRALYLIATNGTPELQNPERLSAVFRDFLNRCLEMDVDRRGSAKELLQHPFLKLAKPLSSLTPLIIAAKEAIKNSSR

Another assay concerns the target PAK2 (PAK65) (Homo sapiens, UniProt Q13177). The assay is described as above. The gist of the method: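 Ten-point threefold compound dilutions (1% DMSO) were incubated with PAK2 (0.29-6 ng) and Ser/Thr 20 substrate (2 μM) for 60 min at room temperature in HEPES pH 7.5 buffer with MgCl2, EGTA and BRIJ-35.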

Sequence of PAK1 (Q13153 whole entry): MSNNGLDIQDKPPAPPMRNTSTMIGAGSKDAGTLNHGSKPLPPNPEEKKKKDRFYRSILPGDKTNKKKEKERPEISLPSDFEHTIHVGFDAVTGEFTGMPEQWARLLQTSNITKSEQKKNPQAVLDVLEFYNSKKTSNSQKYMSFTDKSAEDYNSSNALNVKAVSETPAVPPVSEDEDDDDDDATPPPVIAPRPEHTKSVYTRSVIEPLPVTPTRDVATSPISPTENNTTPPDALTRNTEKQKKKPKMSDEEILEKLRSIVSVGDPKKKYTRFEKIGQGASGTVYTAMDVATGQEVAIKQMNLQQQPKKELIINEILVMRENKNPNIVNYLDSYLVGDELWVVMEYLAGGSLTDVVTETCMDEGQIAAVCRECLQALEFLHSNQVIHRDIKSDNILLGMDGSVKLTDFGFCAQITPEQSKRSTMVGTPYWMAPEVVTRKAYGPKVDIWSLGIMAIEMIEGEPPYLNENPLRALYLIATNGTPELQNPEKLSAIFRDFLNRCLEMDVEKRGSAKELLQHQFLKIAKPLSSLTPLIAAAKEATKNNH
Sequence of PAK2 (PAK65) (Q13177 whole entry): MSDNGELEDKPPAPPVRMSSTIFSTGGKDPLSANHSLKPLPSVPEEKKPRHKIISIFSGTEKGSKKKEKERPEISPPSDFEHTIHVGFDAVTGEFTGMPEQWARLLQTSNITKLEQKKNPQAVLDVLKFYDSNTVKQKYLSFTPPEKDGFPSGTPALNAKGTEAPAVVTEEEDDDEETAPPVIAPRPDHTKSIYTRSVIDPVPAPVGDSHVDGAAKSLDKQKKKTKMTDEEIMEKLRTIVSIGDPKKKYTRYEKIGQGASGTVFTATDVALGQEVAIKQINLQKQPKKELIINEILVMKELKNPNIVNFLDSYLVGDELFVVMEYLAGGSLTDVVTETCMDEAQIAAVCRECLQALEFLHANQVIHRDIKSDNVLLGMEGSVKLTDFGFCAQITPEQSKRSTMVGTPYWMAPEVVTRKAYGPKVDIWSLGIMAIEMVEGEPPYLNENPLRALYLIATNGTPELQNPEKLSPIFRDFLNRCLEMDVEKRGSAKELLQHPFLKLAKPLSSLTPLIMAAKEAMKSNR

For the compound `CCn1c(=O)c(-c2nc(C)sc2C)cc2cnc(Nc3ccc(N4CCN(C)CC4)cc3)nc21`, the IC50 was 500 to 5000 nM against PAK1, not below 5000 nM on PAK4, more than 5000 nM against PAK3 and 500 to 5000 nM at PAK2 (PAK65).

For the compound `Cc1ncccc1-c1ccc(-c2cc3cnc(Nc4ccc(C5CCNCC5)cc4)nc3n(C)c2=O)c(Cl)c1`, the IC50 at PAK1 was less than 50 nM; on PAK4, not below 5000 nM; at PAK3 it was 50 to 500 nM; on PAK2 (PAK65) it was 50 to 500 nM.

Take `CCn1c(=O)c(-c2ccc(-c3noc(C)n3)nc2)cc2cnc(Nc3ccc(C4CCN(C)CC4)cc3)nc21`: the IC50 against PAK1 is 500 to 5000 nM; against PAK4, not below 5000 nM; on PAK3, 500 to 5000 nM; against PAK2 (PAK65), 500 to 5000 nM.

Take `CCn1c(=O)c(-c2ccc(-c3cc(C(F)(F)F)ncn3)cc2Cl)cc2cnc(Nc3ccc(C4CCN(C)CC4)cc3)nc21`: the half-maximal inhibitory concentration (IC50) against PAK1 is 50 to 500 nM; against PAK4, not below 5000 nM; at PAK3, 50 to 500 nM; at PAK2 (PAK65), 50 to 500 nM.

Take `CCN(CC)CCc1ccc(Nc2ncc3cc(-c4ccc(-c5cnc(C)s5)cc4Cl)c(=O)n(CC)c3n2)cc1`: the IC50 on PAK1 is less than 50 nM; against PAK4 it was 500 to 5000 nM; against PAK3 it was less than 50 nM; against PAK2 (PAK65), less than 50 nM.

With `CCN1CCN(c2ccc(Nc3ncc4cc(-c5ccc(-c6cncnc6)cc5Cl)c(=O)n(CC)c4n3)cc2F)CC1`, the IC50 against PAK1 is less than 50 nM; at PAK4 it was 500 to 5000 nM; against PAK3, less than 50 nM; on PAK2 (PAK65), less than 50 nM.

For `CCn1c(=O)c(-c2ccc(-c3cccnc3F)cc2Cl)cc2cnc(Nc3ccc(CCN4CCOCC4)cc3)nc21`, the IC50 at PAK1 is 50 to 500 nM; at PAK4, not below 5000 nM; against PAK3 it was 50 to 500 nM; against PAK2 (PAK65), 50 to 500 nM.

Regarding `Cc1ncccc1-c1ccc(-c2cc3cnc(Nc4ccc(C5CCN(C)CC5)cc4)nc3n(C)c2=O)c(Cl)c1`, the IC50 at PAK1 was less than 50 nM; on PAK4 it was not below 5000 nM; against PAK3, 50 to 500 nM; against PAK2 (PAK65), less than 50 nM.

For the compound `CCn1c(=O)c(-c2ccc(-c3cccnc3)s2)cc2cnc(Nc3ccc(N4CCN(C)CC4)cc3)nc21`, the IC50 against PAK1 was more than 5000 nM; against PAK4 it was not below 5000 nM; at PAK3, more than 5000 nM; at PAK2 (PAK65), more than 5000 nM.

With `CCn1c(=O)c(-c2ccc(-c3cscn3)cc2Cl)cc2cnc(Nc3ccc(N4CCN(C)CC4)cc3)nc21`, the IC50 against PAK1 was less than 50 nM; at PAK4 it was not below 5000 nM; against PAK3, 50 to 500 nM; on PAK2 (PAK65), 50 to 500 nM.

Regarding `CCn1c(=O)c(-c2ccc(-c3cccnc3C)cc2Cl)cc2cnc(Nc3ccc(CCN4CCOCC4)cc3)nc21`, the IC50 against PAK1 was 50 to 500 nM; on PAK4 it was not below 5000 nM; at PAK3 it was 50 to 500 nM; against PAK2 (PAK65) it was 50 to 500 nM.

As to `CC(=O)N(C)c1cc(-c2cc3cnc(Nc4ccc(CCN(C)C)cc4)nc3n(C)c2=O)c(Cl)cc1-c1cccnc1`, the IC50 was 50 to 500 nM against PAK1, not below 5000 nM at PAK4, 50 to 500 nM at PAK3 and 50 to 500 nM against PAK2 (PAK65).

On to `CCn1c(=O)c(-c2ccc(-c3ccco3)cc2Cl)cc2cnc(Nc3ccc(N4CCN(C)CC4)cc3)nc21`, for which the IC50 against PAK1 was less than 50 nM; against PAK4, not below 5000 nM; at PAK3, less than 50 nM; against PAK2 (PAK65) it was less than 50 nM.

For `CCn1c(=O)c(-c2ccc(-c3ccnc(C)c3)cc2Cl)cc2cnc(Nc3ccc(C4CCN(C)CC4)c(F)c3)nc21`, the IC50 is less than 50 nM against PAK1, not below 5000 nM at PAK4, 50 to 500 nM on PAK3 and less than 50 nM against PAK2 (PAK65).

With `CCn1c(=O)c(-c2ccc(-c3cnc(C)s3)cc2Cl)cc2cnc(Nc3ccc(CCN4CCCC4)cc3)nc21`, the IC50 against PAK1 was less than 50 nM; on PAK4 it was 500 to 5000 nM; against PAK3 it was less than 50 nM; against PAK2 (PAK65), less than 50 nM.

As to `CCn1c(=O)c(-c2ccc(-c3cccnc3F)cc2Cl)cc2cnc(Nc3ccc(CCN(C)C)cc3)nc21`, the IC50 was less than 50 nM against PAK1, 50 to 500 nM against PAK4, less than 50 nM on PAK3 and less than 50 nM against PAK2 (PAK65).

Turning to `CCn1c(=O)c(-c2nc(C3CCNCC3)sc2C)cc2cnc(Nc3ccc(N4CCN(C)CC4)cc3)nc21`, the IC50 on PAK1 is 500 to 5000 nM; against PAK4, not below 5000 nM; at PAK3, more than 5000 nM; at PAK2 (PAK65), more than 5000 nM.

As for `CCn1c(=O)c(-c2ccc(-c3ccnc(C)c3)cc2Cl)cc2cnc(Nc3ccc(C4CCN(C)CC4)cc3)nc21`, the IC50 on PAK1 was more than 5000 nM; at PAK4, 500 to 5000 nM; at PAK3, less than 50 nM; at PAK2 (PAK65), less than 50 nM.

Take `CCn1c(=O)c(-c2ccc(-c3noc(C)n3)cc2Cl)cc2cnc(Nc3ccc(N4CCNCC4)cc3)nc21`: the IC50 against PAK1 was less than 50 nM; at PAK4, 50 to 500 nM; on PAK3, less than 50 nM; at PAK2 (PAK65) it was less than 50 nM.

On to `CCn1c(=O)c(-c2ccc(-c3cccnc3)cc2Cl)cc2cnc(Nc3ccc(N4CCNCC4)c(F)c3)nc21`, for which the IC50 against PAK1 is less than 50 nM; at PAK4 it was 500 to 5000 nM; on PAK3, less than 50 nM; against PAK2 (PAK65), less than 50 nM.

In the case of `CCn1c(=O)c(-c2ccc(-c3cncs3)cc2Cl)cc2cnc(Nc3ccc(N4CCNCC4)cc3)nc21`, the IC50 at PAK1 was less than 50 nM; at PAK4 it was 500 to 5000 nM; against PAK3 it was less than 50 nM; against PAK2 (PAK65), less than 50 nM.

Turning to `Cc1ncc(-c2cc(Cl)c(-c3cc4cnc(Nc5ccc(C6CCN(C)CC6)cc5)nc4n(C)c3=O)cc2F)s1`, the IC50 is less than 50 nM on PAK1, not below 5000 nM at PAK4, less than 50 nM against PAK3 and less than 50 nM against PAK2 (PAK65).

Turning to `CCN1CCC(c2ccc(Nc3ncc4cc(-c5ccc(-c6cccnc6F)cc5Cl)c(=O)n(CC)c4n3)cc2F)CC1`, the IC50 on PAK1 was less than 50 nM; against PAK4, 500 to 5000 nM; against PAK3, less than 50 nM; against PAK2 (PAK65), less than 50 nM.

For `CC(=O)Nc1cc(-c2cc3cnc(Nc4ccc(CCN(C)C)cc4)nc3n(C)c2=O)c(Cl)cc1-c1cccnc1`, the IC50 was 50 to 500 nM on PAK1, not below 5000 nM on PAK4, 50 to 500 nM against PAK3 and 50 to 500 nM at PAK2 (PAK65).

In the case of `CCn1c(=O)c(-c2ccc(-c3cncs3)cc2)cc2cnc(Nc3ccc(N4CCN(C)CC4)cc3)nc21`, the IC50 on PAK1 is 50 to 500 nM; against PAK4, not below 5000 nM; on PAK3 it was more than 5000 nM; against PAK2 (PAK65) it was 500 to 5000 nM.

Take `CCn1c(=O)c(-c2ccc(-c3ccnc(C)c3)cc2Cl)cc2cnc(Nc3ccc(C4CCN5CCCC5C4)cc3)nc21` (centres unmarked): the IC50 is less than 50 nM against PAK1, not below 5000 nM at PAK4, 50 to 500 nM against PAK3 and 50 to 500 nM against PAK2 (PAK65).

As for `CCn1c(=O)c(-c2ccc(-c3cnc(C)s3)cc2Cl)cc2cnc(Nc3ccc(C4CCN5CCCC5C4)cc3)nc21` (centres unmarked), the IC50 against PAK1 was less than 50 nM; against PAK4, 500 to 5000 nM; at PAK3 it was less than 50 nM; at PAK2 (PAK65), less than 50 nM.

`Cc1ncc(-c2ccc(-c3cc4cnc(Nc5ccc(C6CCNCC6)cc5)nc4n(C)c3=O)c(Cl)c2)s1`: the IC50 against PAK1 is less than 50 nM; at PAK4, 500 to 5000 nM; at PAK3 it was 50 to 500 nM; against PAK2 (PAK65), less than 50 nM.

For `CCn1c(=O)c(-c2ccc(-c3noc(C)n3)cn2)cc2cnc(Nc3ccc(C4CCN(C)CC4)cc3)nc21`, the 50% inhibitory concentration (IC50) was 500 to 5000 nM against PAK1, not below 5000 nM on PAK4, more than 5000 nM against PAK3 and more than 5000 nM at PAK2 (PAK65).

Regarding `CCn1c(=O)c(-c2ccc(-c3cccnc3)cc2Cl)cc2cnc(Nc3ccc(C4CCN(C)CC4)cc3)nc21`, the IC50 is less than 50 nM at PAK1, 500 to 5000 nM on PAK4, less than 50 nM against PAK3 and less than 50 nM on PAK2 (PAK65).

For the compound `CCn1c(=O)c(-c2ccc(-c3cnc(C)s3)nc2)cc2cnc(Nc3ccc(C4CCN(C)CC4)cc3)nc21`, the IC50 is 500 to 5000 nM on PAK1, not below 5000 nM against PAK4, 500 to 5000 nM against PAK3 and 500 to 5000 nM on PAK2 (PAK65).

As for `Cc1cnc(-c2ccc(Cl)c(-c3cc4cnc(Nc5ccc(C6CCN(C)CC6)cc5)nc4n(C)c3=O)c2)s1`, the IC50 is 50 to 500 nM against PAK1, not below 5000 nM on PAK4, 50 to 500 nM against PAK3 and more than 5000 nM on PAK2 (PAK65).

Consider `CCn1c(=O)c(-c2ccc(-c3cccnc3)cc2Cl)cc2cnc(Nc3ccc(N4CCN(C(C)C)CC4)c(F)c3)nc21`, for which the IC50 on PAK1 was less than 50 nM; on PAK4 it was not below 5000 nM; against PAK3 it was less than 50 nM; against PAK2 (PAK65), less than 50 nM.

Turning to `CCN1CCC(c2ccc(Nc3ncc4cc(-c5ccc(-c6ccnc(C)c6)cc5Cl)c(=O)n(CC)c4n3)cc2F)CC1`, the IC50 was less than 50 nM on PAK1, 500 to 5000 nM at PAK4, less than 50 nM on PAK3 and less than 50 nM at PAK2 (PAK65).

Consider `Cc1cnc(-c2ccc(-c3cc4cnc(Nc5ccc(C6CCN(C)CC6)cc5)nc4n(C)c3=O)c(C)c2)s1`, for which the IC50 is less than 50 nM against PAK1, 500 to 5000 nM on PAK4, 50 to 500 nM against PAK3 and less than 50 nM on PAK2 (PAK65).
